# Laboratory results from ChEMBL document CHEMBL1201862, “PubChem BioAssay data set” (2004).
#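 Protocol summary: plate cells (96-well), add compound at 5 concentrations, incubate 48 h, interpolate endpoints linearly. At the GI50, growth is halved.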 Calls of active or inactive are those of the source. Rule as the data show it: active = GI50 up to about 1.1 µM and inactive = higher.
# Columns and labels:
# Assay in all cases: inhibition of tumour cell growth, NCI panel, 48 h
# 786-0 = tested on: 786-0
# A498 = tested on: A498
# A549 = tested on: A549
# ACHN = tested on: ACHN
# BT-549 = tested on: BT-549
# CAKI-1 = tested on: CAKI-1
# CCRF-CEM = tested on: CCRF-CEM
# COLO 205 = tested on: COLO 205
# DU-145 = tested on: DU-145
# EKVX = tested on: EKVX
# HCC 2998 = tested on: HCC 2998
# HCT-116 = tested on: HCT-116
# HCT-15 = tested on: HCT-15
# HL-60 = tested on: HL-60
# HOP-62 = tested on: HOP-62
# HOP-92 = tested on: HOP-92
# HT-29 = tested on: HT-29
# Hs-578T = tested on: Hs-578T
# IGROV-1 = tested on: IGROV-1
# K562 = tested on: K562
# KM12 = tested on: KM12
# LOX IMVI = tested on: LOX IMVI
# M14 = tested on: M14
# MCF7 = tested on: MCF7
# MDA-MB-231 = tested on: MDA-MB-231
# MDA-MB-435 = tested on: MDA-MB-435
# MOLT-4 = tested on: MOLT-4
# Malme-3M = tested on: Malme-3M
# NCI-H226 = tested on: NCI-H226
# NCI-H23 = tested on: NCI-H23
# NCI-H460 = tested on: NCI-H460
# NCI-H522 = tested on: NCI-H522
# NCI/ADR-RES = tested on: NCI/ADR-RES
# OVCAR-3 = tested on: OVCAR-3
# OVCAR-4 = tested on: OVCAR-4
# OVCAR-5 = tested on: OVCAR-5
# OVCAR-8 = tested on: OVCAR-8
# PC-3 = tested on: PC-3
# RPMI-8226 = tested on: RPMI-8226
# RXF 393 = tested on: RXF 393
# SF-268 = tested on: SF-268
# SF-295 = tested on: SF-295
# SF-539 = tested on: SF-539
# SK-MEL-28 = tested on: SK-MEL-28
# SK-MEL-2 = tested on: SK-MEL-2
# SK-MEL-5 = tested on: SK-MEL-5
# SK-OV-3 = tested on: SK-OV-3
# SN12C = tested on: SN12C
# SNB-19 = tested on: SNB-19
# SNB-75 = tested on: SNB-75
# SR = tested on: SR
# SW-620 = tested on: SW-620
# T47D = tested on: T47D
# TK-10 = tested on: TK-10
# U-251 = tested on: U-251
# UACC-257 = tested on: UACC-257
# UACC-62 = tested on: UACC-62
# UO-31 = tested on: UO-31
smiles,measurement,setting,value
C=C1C(=O)C23CC1C[C@H](OC(C)=O)C2C1(C)C(OC(C)=O)C[C@H](O)C(C)(C)[C@H]1C(O)[C@@H]3OC(C)=O (stereo partly specified),GI50,786-0,7870 nM (inactive)
same,GI50,A498,15100 nM (inactive)
same,GI50,A549,22900 nM (inactive)
same,GI50,ACHN,11900 nM (inactive)
same,GI50,BT-549,3030 nM (inactive)
same,GI50,CAKI-1,16400 nM (inactive)
same,GI50,CCRF-CEM,2240 nM (inactive)
same,GI50,COLO 205,4130 nM (inactive)
same,GI50,DU-145,18100 nM (inactive)
same,GI50,EKVX,13100 nM (inactive)
same,GI50,HCC 2998,21200 nM (inactive)
same,GI50,HCT-116,5020 nM (inactive)
same,GI50,HCT-15,10400 nM
same,GI50,HL-60,3660 nM (inactive)
same,GI50,HOP-62,18900 nM (inactive)
same,GI50,HOP-92,9290 nM (inactive)
same,GI50,HT-29,15500 nM (inactive)
same,GI50,Hs-578T,15800 nM (inactive)
same,GI50,IGROV-1,16500 nM (inactive)
same,GI50,K562,3560 nM (inactive)
same,GI50,KM12,33000 nM (inactive)
same,GI50,LOX IMVI,14900 nM (inactive)
same,GI50,M14,6500 nM (inactive)
same,GI50,MCF7,5780 nM (inactive)
same,GI50,MDA-MB-231,7190 nM (inactive)
same,GI50,MDA-MB-435,8090 nM (inactive)
same,GI50,MOLT-4,2730 nM (inactive)
same,GI50,Malme-3M,7010 nM (inactive)
same,GI50,NCI-H226,22100 nM (inactive)
same,GI50,NCI-H23,12600 nM (inactive)
same,GI50,NCI-H460,26700 nM (inactive)
same,GI50,NCI-H522,1610 nM (inactive)
same,GI50,NCI/ADR-RES,> 100000 nM (inactive)
same,GI50,OVCAR-3,7180 nM (inactive)
same,GI50,OVCAR-4,10800 nM (inactive)
same,GI50,OVCAR-5,14600 nM (inactive)
same,GI50,OVCAR-8,2960 nM (inactive)
same,GI50,PC-3,11100 nM (inactive)
same,GI50,RPMI-8226,4270 nM (inactive)
same,GI50,RXF 393,7240 nM (inactive)
same,GI50,SF-268,13400 nM (inactive)
same,GI50,SF-295,24800 nM (inactive)
same,GI50,SF-539,2430 nM (inactive)
same,GI50,SK-MEL-28,11900 nM (inactive)
same,GI50,SK-MEL-2,14800 nM (inactive)
same,GI50,SK-MEL-5,14600 nM (inactive)
same,GI50,SK-OV-3,24800 nM (inactive)
same,GI50,SN12C,8070 nM (inactive)
same,GI50,SNB-19,21500 nM (inactive)
same,GI50,SNB-75,18800 nM (inactive)
same,GI50,SR,7480 nM (inactive)
same,GI50,SW-620,2480 nM (inactive)
same,GI50,T47D,6670 nM (inactive)
same,GI50,TK-10,3790 nM (inactive)
same,GI50,U-251,15300 nM (inactive)
same,GI50,UACC-257,11900 nM (inactive)
same,GI50,UACC-62,13300 nM (inactive)
same,GI50,UO-31,16900 nM (inactive)
COc1cc2c(cc1OCCCCCOc1cc3c(cc1OC)C(=O)N1CCC[C@H]1C(=O)N3)N=C[C@@H]1CCCN1C2=O,GI50,786-0,76.2 nM (active)
same,GI50,A498,218 nM (active)
same,GI50,A549,716 nM (active)
same,GI50,ACHN,206 nM (active)
same,GI50,BT-549,75 nM (active)
same,GI50,CAKI-1,839 nM (active)
same,GI50,CCRF-CEM,< 10 nM (active)
same,GI50,COLO 205,17.7 nM (active)
same,GI50,DU-145,780 nM (active)
same,GI50,EKVX,279 nM (active)
same,GI50,HCC 2998,< 10 nM (active)
same,GI50,HCT-116,193 nM (active)
same,GI50,HCT-15,3080 nM
same,GI50,HL-60,81.7 nM (active)
same,GI50,HOP-62,140 nM (active)
same,GI50,HOP-92,29.9 nM (active)
same,GI50,HT-29,116 nM (active)
same,GI50,Hs-578T,258 nM (active)
same,GI50,IGROV-1,132 nM (active)
same,GI50,K562,45.3 nM (active)
same,GI50,KM12,180 nM (active)
same,GI50,LOX IMVI,27.4 nM (active)
same,GI50,M14,114 nM (active)
same,GI50,MCF7,22.9 nM (active)
same,GI50,MDA-MB-231,140 nM (active)
same,GI50,MDA-MB-435,124 nM (active)
same,GI50,MOLT-4,< 10 nM (active)
same,GI50,Malme-3M,161 nM (active)
same,GI50,NCI-H226,166 nM (active)
same,GI50,NCI-H23,210 nM (active)
same,GI50,NCI-H460,116 nM (active)
same,GI50,NCI-H522,11.2 nM (active)
same,GI50,NCI/ADR-RES,7800 nM (inactive)
same,GI50,OVCAR-3,165 nM (active)
same,GI50,OVCAR-4,198 nM (active)
same,GI50,OVCAR-5,957 nM (active)
same,GI50,OVCAR-8,225 nM (active)
same,GI50,PC-3,256 nM (active)
same,GI50,RPMI-8226,30.1 nM (active)
same,GI50,RXF 393,175 nM (active)
same,GI50,SF-268,32.5 nM (active)
same,GI50,SF-295,268 nM (active)
same,GI50,SF-539,22.4 nM (active)
same,GI50,SK-MEL-28,174 nM (active)
same,GI50,SK-MEL-2,80.9 nM (active)
same,GI50,SK-MEL-5,100 nM (active)
same,GI50,SK-OV-3,102 nM (active)
same,GI50,SN12C,71.1 nM (active)
same,GI50,SNB-19,192 nM (active)
same,GI50,SNB-75,< 10 nM (active)
same,GI50,SR,< 10 nM (active)
same,GI50,SW-620,87.5 nM (active)
same,GI50,T47D,33.6 nM (active)
same,GI50,TK-10,111 nM (active)
same,GI50,U-251,22.5 nM (active)
same,GI50,UACC-257,237 nM (active)
same,GI50,UACC-62,73.6 nM (active)
same,GI50,UO-31,762 nM (active)
